Here are results for 19 molecules from patent publication US10287255B2, “Compounds as histone deacetylase 6 inhibitors and pharmaceutical compositions comprising the same” (CHONG KUN DANG PHARMACEUTICAL CORP., priority 2014, dated 2019).

Experiment [1] addresses T1, human recombinant HDAC6 (Homo sapiens, UniProt Q9UBN7).
T1 construct: purchased Calbiochem 382180
T1 sequence (Q9UBN7 1-1215): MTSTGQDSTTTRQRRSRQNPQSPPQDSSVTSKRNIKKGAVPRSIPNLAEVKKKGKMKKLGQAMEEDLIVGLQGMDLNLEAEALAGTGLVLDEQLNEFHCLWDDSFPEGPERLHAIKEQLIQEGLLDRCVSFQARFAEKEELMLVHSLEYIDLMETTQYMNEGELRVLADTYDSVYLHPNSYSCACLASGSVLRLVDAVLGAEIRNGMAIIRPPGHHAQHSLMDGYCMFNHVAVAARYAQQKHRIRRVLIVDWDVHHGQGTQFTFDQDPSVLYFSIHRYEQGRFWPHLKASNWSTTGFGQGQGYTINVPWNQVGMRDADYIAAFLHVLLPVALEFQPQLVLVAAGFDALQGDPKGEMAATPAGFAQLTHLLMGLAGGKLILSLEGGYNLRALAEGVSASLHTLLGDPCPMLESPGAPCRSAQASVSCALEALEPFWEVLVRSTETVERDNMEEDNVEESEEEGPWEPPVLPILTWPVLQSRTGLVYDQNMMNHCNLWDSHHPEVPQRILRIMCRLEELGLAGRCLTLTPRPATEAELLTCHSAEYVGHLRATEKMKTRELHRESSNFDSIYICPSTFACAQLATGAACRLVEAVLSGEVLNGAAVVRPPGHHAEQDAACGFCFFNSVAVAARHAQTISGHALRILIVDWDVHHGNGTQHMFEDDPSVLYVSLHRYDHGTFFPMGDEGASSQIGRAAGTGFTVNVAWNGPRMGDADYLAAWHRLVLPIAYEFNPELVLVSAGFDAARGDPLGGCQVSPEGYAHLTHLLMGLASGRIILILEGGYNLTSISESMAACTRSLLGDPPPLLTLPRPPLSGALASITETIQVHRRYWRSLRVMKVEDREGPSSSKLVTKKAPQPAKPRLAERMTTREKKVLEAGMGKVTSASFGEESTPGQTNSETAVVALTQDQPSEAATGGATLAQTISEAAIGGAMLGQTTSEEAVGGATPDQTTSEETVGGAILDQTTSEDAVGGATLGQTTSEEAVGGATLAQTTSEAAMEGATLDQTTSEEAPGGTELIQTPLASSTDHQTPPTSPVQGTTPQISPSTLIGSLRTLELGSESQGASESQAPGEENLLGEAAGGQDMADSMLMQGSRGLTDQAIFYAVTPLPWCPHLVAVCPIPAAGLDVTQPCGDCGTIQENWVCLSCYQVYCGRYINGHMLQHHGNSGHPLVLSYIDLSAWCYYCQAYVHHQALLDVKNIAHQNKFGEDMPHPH
Briefly: HDAC6 enzyme activity inhibition assay (in vitro, fluorimetric). In kind it is biochemical. To be noted: for HDAC6 selectivity (fold): HDAC6 selectivity over HDAC1; for IC50: human recombinant HDAC6, fluorimetric kit, same protocol as HDAC1. The method, then: (§1) In order to examine the HDAC6 selectivity of the compounds of formula 1 of the present invention by HDAC1 and HDAC6 enzymatic activity inhibition assays, an experiment was performed using a conventional substance as a control.
(§2) HDAC enzyme activity was measured using a HDAC Fluorimetric Drug Discovery Kit (BML-AK511, 516, Enzo Life Science). For the HDAC1 enzyme activity test, human recombinant HDAC1 (BML-SE456) was used as an enzyme source, and Fluor de Lys®-“SIRT1 (BNL-KI177) was used as a substrate. A 5-fold dilution of the compound was seeded into a 96-well plate, and then 0.3 μg of the enzyme and 10 μM of the substrate were added to each well of the plate and allowed to react at 30° C. for 60 minutes. Then, Fluor de Lys® Developer II (BML-KI176) was added thereto and allowed to react for 30 minutes, after which the fluorescence value (Ex 360, Em 460) was measured using a multi-plate reader (Flexstation 3, Molecular Device). The HDAC6 enzyme was tested using human recombinant HDAC6 (382180) (Calbiochem) according to the same protocol as the HDAC1 enzyme activity test method. Based on the resulting values, each IC50 value was calculated using GraphPad Prism4.0 program.

Experiment [2] deals with T2, human recombinant HDAC1 (Homo sapiens, UniProt Q13547).
T2 construct: purchased Enzo Life Science BML-SE456
T2 sequence (Q13547 whole entry): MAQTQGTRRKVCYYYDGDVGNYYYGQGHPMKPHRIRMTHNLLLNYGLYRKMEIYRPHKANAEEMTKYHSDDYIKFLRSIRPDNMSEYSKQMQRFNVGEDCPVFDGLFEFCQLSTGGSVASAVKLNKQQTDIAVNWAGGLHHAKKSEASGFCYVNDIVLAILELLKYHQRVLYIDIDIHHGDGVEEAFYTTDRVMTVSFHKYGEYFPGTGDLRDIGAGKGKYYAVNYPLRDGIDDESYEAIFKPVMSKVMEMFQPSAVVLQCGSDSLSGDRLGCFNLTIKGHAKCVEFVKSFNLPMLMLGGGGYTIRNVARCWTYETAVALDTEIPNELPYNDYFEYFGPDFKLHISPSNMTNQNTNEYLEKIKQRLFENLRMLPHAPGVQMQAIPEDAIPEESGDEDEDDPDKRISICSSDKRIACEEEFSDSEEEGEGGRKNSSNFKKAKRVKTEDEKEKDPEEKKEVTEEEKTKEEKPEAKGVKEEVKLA
Briefly: HDAC1 enzyme activity inhibition assay (in vitro, fluorimetric). In kind it is biochemical. The following applies: human recombinant HDAC1, fluorimetric kit, 30° C. 60 minutes. The procedure: as §1, §2

The structures appear in SMILES notation.

Regarding `C[C@@H]1CN(S(=O)(=O)c2cccnc2)C[C@H](C)N1Cc1ccc(C(=O)NO)cc1` [Compound 113, 4-(((2S,6R)-2,6-dimethyl-4-(pyridin-3-ylsulfonyl)piperazin-1-yl)methyl)-N-hydroxybenzamide], in experiment [1], the “HDAC6 selectivity (fold)” value turned out to be 27 fold and the IC50 (as a rule, the concentration at which inhibition is half-maximal) was determined as 104 nM. Besides, the IC50 in experiment [2] stood at 2800 nM.
Turning to `C[C@@H]1CN(Cc2ccc(C(=O)NO)cc2)C[C@H](C)N1C(=O)c1ccc(CN2CC[C@@H](F)C2)cc1` [Compound 460, 4-(((3R,5S)-4-(4-(((R)-3-fluoropyrrolidin-1-yl)methyl)benzoyl)-3,5-dimethylpiperazin-1-yl)methyl)-N-hydroxybenzamide], the “HDAC6 selectivity (fold)” value in experiment [1] was 20 fold. The half-maximal inhibitory concentration (IC50) was 219 nM in experiment [1] and 4400 nM in experiment [2].
The like results for `CC(C)=CCN1[C@H](C)CN(Cc2ccc(C(=O)NO)cc2)C[C@@H]1C` [Compound 272, 4-(((3R,5S)-3,5-dimethyl-4-(3-methylbut-2-en-1-yl)piperazin-1-yl)methyl)-N-hydroxybenzamide] were, in that order, 67 fold, 182 nM and 12200 nM.
With `C[C@@H]1CN(Cc2ccccc2C2=CCOCC2)C[C@H](C)N1Cc1ccc(C(=O)NO)cc1` [Compound 351, 4-(((2S,6R)-4-(2-(3,6-dihydro-2H-pyran-4-yl)benzyl)-2,6-dimethylpiperazin-1-yl)methyl)-N-hydroxybenzamide], in experiment [1], the “HDAC6 selectivity (fold)” value worked out at 15 fold and the IC50 is 351 nM. For the same molecule, the IC50 in experiment [2] was 5100 nM.
Taken in the same sequence, the figures for `C[C@@H]1CN(c2ccc(F)cc2)C[C@H](C)N1Cc1ccc(C(=O)NO)cc1` [Compound 119, 4-(((2S,6R)-4-(4-fluorophenyl)-2,6-dimethylpiperazin-1-yl)methyl)-N-hydroxybenzamide] were 26 fold, 309 nM and 8200 nM.
The like results for `C[C@@H]1CN(C(=O)c2ccccc2-c2cccnc2)C[C@H](C)N1Cc1ccc(C(=O)NO)cc1` [Compound 279, 4-(((2S,6R)-2,6-dimethyl-4-(2-(pyridin-3-yl)benzoyl)piperazin-1-yl)methyl)-N-hydroxybenzamide] were, in that order, >13 fold, 769 nM and > 10000 nM.
As for `C[C@@H]1CN(Cc2ccc(C(=O)NO)cn2)C[C@H](C)N1Cc1ccccc1` [Compound 194, 6-(((3R,5S)-4-benzyl-3,5-dimethylpiperazin-1-yl)methyl)-N-hydroxynicotinamide], in experiment [1], the “HDAC6 selectivity (fold)” value was determined as 303 fold and the IC50 came out at 82 nM. In experiment [2], the IC50 turned out to be 24800 nM.
In the case of `CC(c1ccc(C(=O)NO)cc1)N1C[C@@H](C)N(Cc2ccccc2)[C@@H](C)C1` (stereo partly drawn) [Compound 219, 4-(1-((3R,5S)-4-benzyl-3,5-dimethylpiperazin-1-yl)ethyl)-N-hydroxybenzamide], in experiment [1], the “HDAC6 selectivity (fold)” value is recorded as >59 fold and the IC50 is 170 nM. For the same molecule, the IC50 in experiment [2] was > 10000 nM.
For `C[C@@H]1CN(Cc2ccc(/C=C/C(=O)NO)cc2)C[C@H](C)N1C(=O)Nc1cccc(-n2cccc2)c1` [Compound 321, (2S,6R)-N-(3-(1H-pyrrol-1-yl)phenyl)-4-(4-((E)-3-(hydroxyamino)-3-oxoprop-1-en-1-yl)benzyl)-2,6-dimethylpiperazine-1-carboxamide], the “HDAC6 selectivity (fold)” value in experiment [1] stood at 8 fold. The IC50 was 125 nM in experiment [1] and 1100 nM in experiment [2].
Consider `C[C@@H]1CN(Cc2ccc(C(=O)NO)cc2)C[C@H](C)N1C(=O)c1ccco1` [Compound 125, 4-(((3R,5S)-4-(furan-2-carbonyl)-3,5-dimethylpiperazin-1-yl)methyl)-N-hydroxybenzamide], for which, in experiment [1], the “HDAC6 selectivity (fold)” value is on record as >3333 fold and the IC50 is 3 nM. The IC50 in experiment [2] is > 10000 nM.
As for `CC(C)N1CC=C(c2ccccc2CN2[C@H](C)CN(Cc3ccc(C(=O)NO)cc3)C[C@@H]2C)CC1` [Compound 484, N-hydroxy-4-(((3R,5S)-4-(2-(1-isopropyl-1,2,3,6-tetrahydropyridin-4-yl)benzyl)-3,5-dimethylpiperazin-1-yl)methyl)benzamide], in experiment [1], the “HDAC6 selectivity (fold)” value was found to be 151 fold and the IC50 is 130 nM. For the same molecule, the IC50 in experiment [2] came to 19600 nM.
On to `C[C@@H]1CN(Cc2ccc(C(=O)NO)cc2)C[C@H](C)N1C(=O)c1ccc(-c2ccco2)cc1` [Compound 340, 4-(((3R,5S)-4-(4-(furan-2-yl)benzoyl)-3,5-dimethylpiperazin-1-yl)methyl)-N-hydroxybenzamide], for which, in experiment [1], the “HDAC6 selectivity (fold)” value is recorded as 3 fold and the IC50 came to 606 nM. In experiment [2], the IC50 worked out at 1600 nM.
In the case of `CCC(=O)N1[C@H](C)CN(Cc2ccc(C(=O)NO)cc2)C[C@@H]1C` [Compound 293, 4-(((3R,5S)-3,5-dimethyl-4-propionylpiperazin-1-yl)methyl)-N-hydroxybenzamide], in experiment [1], the “HDAC6 selectivity (fold)” value was determined as 44 fold and the IC50 was 131 nM. The IC50 in experiment [2] was determined as 5800 nM.
Taken in the same sequence, the figures for `COc1ccccc1NC(=O)N1C[C@@H](C)N(Cc2ccc(C(=O)NO)cc2)[C@@H](C)C1` [Compound 163, (3R,5S)-4-(4-(hydroxycarbamoyl)benzyl)-N-(2-methoxyphenyl)-3,5-dimethylpiperazine-1-carboxamide] were 2 fold, 497 nM and 1100 nM.
Take `CCN1CCN(Cc2cccc(CN3[C@H](C)CN(Cc4ccc(C(=O)NO)cc4)C[C@@H]3C)c2)CC1` [Compound 429, 4-(((3R,5S)-4-(3-((4-ethylpiperazin-1-yl)methyl)benzyl)-3,5-dimethylpiperazin-1-yl)methyl)-N-hydroxybenzamide]: the “HDAC6 selectivity (fold)” value in experiment [1] stood at 44 fold. Moreover, the IC50 in experiment [1] was determined as 100 nM; in experiment [2], 4400 nM.
The like results for `C[C@@H]1CN(C(=O)c2ccccn2)C[C@H](C)N1Cc1ccc(C(=O)NO)cc1` [Compound 111, 4-(((2S,6R)-2,6-dimethyl-4-picolinoylpiperazin-1-yl)methyl)-N-hydroxybenzamide] were, in that order, >22 fold, 461 nM and > 10000 nM.
With `CCN(CC)Cc1cccc(C(=O)N2C[C@@H](C)N(Cc3ccc(/C=C/C(=O)NO)cc3)[C@@H](C)C2)c1` [Compound 487, (E)-3-(4-(((2S,6R)-4-(3-((diethylamino)methyl)benzoyl)-2,6-dimethylpiperazin-1-yl)methyl)phenyl)-N-hydroxyacrylamide], in experiment [1], the “HDAC6 selectivity (fold)” value is listed as 4 fold and the IC50 amounted to 296 nM. Moreover, the IC50 in experiment [2] came out at 1100 nM.
As for `C[C@@H]1CN(Cc2ccc(C(=O)NO)cc2)C[C@H](C)N1C(=O)NCc1ccccc1` [Compound 161, (2S,6R)-N-benzyl-4-(4-(hydroxycarbamoyl)benzyl)-2,6-dimethylpiperazine-1-carboxamide], in experiment [1], the “HDAC6 selectivity (fold)” value is reported as 182 fold and the concentration for half-maximal inhibition (IC50) was 16 nM. The IC50 in experiment [2] worked out at 2900 nM.
Regarding `C[C@@H]1CN(Cc2cccc(C(F)(F)F)c2)C[C@H](C)N1Cc1ccc(C(=O)NO)cc1` [Compound 298, 4-(((2S,6R)-2,6-dimethyl-4-(3-(trifluoromethyl)benzyl)piperazin-1-yl)methyl)-N-hydroxybenzamide], in experiment [1], the “HDAC6 selectivity (fold)” value was found to be 15 fold. For the same molecule, the half-inhibitory concentration (IC50) is 369 nM in experiment [1] and 5500 nM in experiment [2].
